Measured values as given in patent publication US7728128B2, “Dibenzo[c,h][1,5]naphthyridines and their use as DNA probes” (Institut National de la Sante et de la Recherche Medicate …, priority 2006, dated 2010).

Tests used:
[1] = test system: ds plasmid DNA or heat-denatured E. coli RNA; experiment: fluorescence titration with dsDNA versus RNA (selectivity); assay type: binding; conditions: for emission strength with DNA relative to RNA: 50 μM DNA or RNA
Protocol: Plasmid dsDNA was purified using a Qiagen Maxiprep kit and used in the supercoiled form for absorption and fluorescence studies. E. coli total RNA was bought from Ambion, dA/dT and dG/dC homopolymers were purchased from Amersham Biosciences. Calf thymus (CT) high-molecular weight DNA and Hoechst 33258 were obtained from Sigma-Aldrich. Ethidium bromide was purchased from Amresco.
Spectrometry and fluorimetry were performed using a SpectraMax384 (Molecular Devices) and a Luminescence Spectrometer LS50B (Perkin Elmer). Fluorescence emission of compound I in complex with DNA and RNA was measured in 50 mM Na phosphate buffer, pH 7.2 at room temperature. Before use, total E. coli RNA was heated to 100° C. for 1 min and immediately transferred on ice for 5 min before mixing with compound I solution. All measurements were carried out at room temperature (20-23° C.) in solutions protected from light and incubated for ˜10-15 min after dilution. The units of b/dye and bp/dye are defined as moles of RNA bases or DNA base pairs per mole of dye. Quantum yield was measured using quinine sulphate as standard as described in (Iupac Commission on Photochemistry, EPA Newsletter of November 1986, 21-29) using FLUOROMAX-3 Spex Spectrofluorometer (HORIBA) and UVIKON XL Spectrophotometer (SECOMAM).
A number of known fluorescent dyes bind preferentially to dsDNA, while others, like the SYTO dyes, bind similarly well to dsDNA, ssDNA and RNA (Haugland, R. P. et al., supra). Knowing these properties is important to the design of experiments where one or another (or several) type(s) of nucleic acids may be present. To investigate the selectivity of compound I, the inventors have compared fluorescence intensities at 484 nm of the dye incubated with ds plasmid DNA or heat-denatured E. coli RNA. […] At higher dye/b or dye/bp ratio, the difference was smaller (1.8-fold at dye/b(bp) ratio 0.2), meaning that elevated amounts of dye could saturate both types of nucleic acids. The inventors then performed the experiment in the opposite sense, i.e. titrating a fixed amount of compound I at 1 μM with increasing amounts of DNA and RNA.

CT DNA = experiment: viscometry (hydrodynamic studies) of CT DNA solutions; assay type: binding, calf
Protocol: Calf thymus (CT) DNA was dissolved in 50 mM Na-phosphate buffer, pH 7.2, to a concentration of 0.1 or 0.5 mM relative to base pairs as described in the legend for FIGS. 3A and B. DNA solution was allowed to run through a custom-made capillary viscometer and the time necessary for the meniscus to pass a certain distance was measured using a stopwatch. All experiments were performed at 23° C. Viscosity values were calculated using the equation: η=(t−t0)/t0, where t is the flow time of DNA solution (with or without dye), and t0 is the flow time of Na-phosphate buffer alone. For each control and DNA solutions with dyes flow times were measured three to five times. Viscosity of DNA solutions with dyes were calculated as (η/η0)^1/3, where η0 and η are relative viscosities of the CT DNA solution in the absence and presence of the dye, respectively. This calculation stems from the relationship which exists between the relative solution viscosity and the relative contour length (L/L0): L/L0=(η/η0)^1/3, where L stands for the apparent molecular length (Muller, W. et al., 1968, J Mol Biol, 35, 251-290). Average viscosity values and standard error of the mean (SEM) were determined using (η/η0)^1/3 values calculated for each time flow measurement.
DNA-binding dyes interact with dsDNA by intercalation or external binding, or both. External binding most often involves the minor groove of DNA (Kopka et al.; Pjura, P. E., et al., 1987, J Mol Biol, 197, 257-271). Intercalation occurs when a ligand inserts itself between the opposite strands of DNA. In order to determine the mechanism of compound I binding to dsDNA, the inventors performed hydrodynamic studies. This approach is based on the observation that intercalating molecules increase the length of DNA fragments and, consequently, enhance the viscosity of DNA solutions (Muller W. et al.; Suh, D. et al., 1995, Bioorg Med Chem, 3, 723-728). For this experiment, compound I has been compared to the known DNA intercalator ethidium bromide and to the external minor groove binder Hoechst 33258. CT DNA at 0.5 mM was mixed with drugs at 0.1 mM concentration (0.2 dye/bp ratio) and used for viscometry measurements.
The inventors then wondered whether the increase in viscosity is equally matched by the increase in fluorescence intensity. To answer this question, CT DNA at 0.1 mM (bp) was mixed with increasing amounts of compound I and viscosity measurements were performed as above. The viscosity of the DNA/compound I solutions increased up to a dye/bp ratio 1 (FIG. 3B). To correlate the increase in viscosity with fluorescence, the inventors measured fluorescence intensities at 484 nm of the compound I/DNA solutions used for the viscosity measurements.

Xenopus cells XL177 = experiment: visual phenotypic screen on live Xenopus cells XL177; assay type: cell-based
Protocol: In this study, three different types of cells were used: Xenopus epithelial cell line XL177 (Miller, L. et al., 1977, In Vitro, 13, 557-563) stably transformed with a YFP-α-tubulin expressing construct (pEYFP-Tub, Clontech), mouse fibroblasts, and primary human skin fibroblasts. XL177 cells were grown at 20° C. in 60% Leibowitz-15 medium, supplemented with antibiotics, 10% fetal calf serum (FCS) and 10 mM HEPES, pH 7.2 with addition of 0.7 mg/ml G418. Cells were plated into glass-bottom 96-well plates (Greiner, Germany) and left to spread for 24 hours before being incubated in the presence of the test compounds from the Curie-CNRS small molecule library (at 25 or 50 μM final concentration) for another 20-24 hours. Mouse and human fibroblasts were grown in DMEM with antibiotics and 10% FCS at 37° C. in the presence of 5% CO2. The cells were observed using a Zeiss Axiovert 200M microscope with a 40× oil immersion objective and a standard Alexa488/FITC filter (Omega, XF100-2; Ex475AF40/Em535AF45/Dichroic505). Subsequent experiments were carried out using smaller concentrations of compound I and incubation times as described in the text and figures legends. For the in vivo tests of compound I-like compounds, the molecules were added to cell culture medium at 10 μM final concentration and incubated with cells 10-60 min (up to 24 hours) prior to scoring.
The signal appeared after 10-20 sec illumination and was stable for many minutes thereafter (see below).

For `COc1ccc2c(c1)c(C)nc1c3ccc(OC)cc3c(NCCCN(C)C)nc21` [Compound I, N′-(2,8-dimethoxy-12-methyl-dibenzo[c,h][1,5]naphthyridin-6-yl)-N,N-dimethyl-propane-1,3-diamine], the “saturation of fixed amount of dye by RNA (not saturated)” value ([1]; 1 μM dye) was over 250 b/dye, the “saturation of fixed amount of dye by dsDNA” value ([1]; 1 μM dye) was about 30 bp/dye and the “fluorescence with dsDNA relative to RNA” value ([1]; 1 μM dye titrated with DNA and RNA, same b(bp)/dye ratios) was 2.5-3.6. For the same molecule, the “emission strength with DNA relative to RNA” value ([1]; dye/b(bp) ratio 0.2) was 1.8 fold, the “emission strength with DNA relative to RNA” value ([1]; low dye/bp and dye/b ratios, 484 nm) was 6 fold and the “dye/bp ratio up to which viscosity increased” value (CT DNA; CT DNA 0.1 mM (bp)) was at most 1. The “dye/bp ratio of maximal fluorescence intensity” value (CT DNA; CT DNA 0.1 mM (bp), 484 nm) was 0.2, the “effect on viscosity of DNA solution” value (CT DNA; CT DNA 0.5 mM, drug 0.1 mM (0.2 dye/bp ratio)) was “increasing the viscosity of the DNA solution” and the “illumination time before nuclear signal appeared” value (Xenopus cells XL177; Alexa488/FITC filter) was 10 to 20 s. For the same molecule, the cell membrane permeability (Xenopus cells XL177; live cells) was “cell-membrane permeant” and the “toxicity in cultured cells” value (Xenopus cells XL177; standard cell culture conditions) was “non-toxic under standard cell culture conditions (up to six days in culture)”.
